Assay results: patent US20160008490A1, “METAL CHELATE COMPOUNDS FOR BINDING TO THE PLATELET SPECIFIC GLYCOPROTEIN IIB/IIIA” (BAYER PHARMA AKTIENGESELLSCHAFT, priority 2013, published 2016)

What was measured:
[1] = biological target: T1, human GP IIb/IIIa receptor (Homo sapiens, UniProt P05106+P08514); test: GPIIb/IIIa affinity assay (displacement of tritiated reference compound from immobilized receptor); type: binding; settings: purified human GPIIb/IIIa, 60 nM 3H-labeled reference compound, 1 hour at room temperature
T1 construct: human GPIIb/IIIa purified from human platelets was immobilized on a 96-well solid plate; purchased Enzyme Research Laboratories Inc. (South Bend, Ind.); host or cells: human platelets (natural source, detergent-solubilised)
T1 sequence (P08514 32-887 limits assumed): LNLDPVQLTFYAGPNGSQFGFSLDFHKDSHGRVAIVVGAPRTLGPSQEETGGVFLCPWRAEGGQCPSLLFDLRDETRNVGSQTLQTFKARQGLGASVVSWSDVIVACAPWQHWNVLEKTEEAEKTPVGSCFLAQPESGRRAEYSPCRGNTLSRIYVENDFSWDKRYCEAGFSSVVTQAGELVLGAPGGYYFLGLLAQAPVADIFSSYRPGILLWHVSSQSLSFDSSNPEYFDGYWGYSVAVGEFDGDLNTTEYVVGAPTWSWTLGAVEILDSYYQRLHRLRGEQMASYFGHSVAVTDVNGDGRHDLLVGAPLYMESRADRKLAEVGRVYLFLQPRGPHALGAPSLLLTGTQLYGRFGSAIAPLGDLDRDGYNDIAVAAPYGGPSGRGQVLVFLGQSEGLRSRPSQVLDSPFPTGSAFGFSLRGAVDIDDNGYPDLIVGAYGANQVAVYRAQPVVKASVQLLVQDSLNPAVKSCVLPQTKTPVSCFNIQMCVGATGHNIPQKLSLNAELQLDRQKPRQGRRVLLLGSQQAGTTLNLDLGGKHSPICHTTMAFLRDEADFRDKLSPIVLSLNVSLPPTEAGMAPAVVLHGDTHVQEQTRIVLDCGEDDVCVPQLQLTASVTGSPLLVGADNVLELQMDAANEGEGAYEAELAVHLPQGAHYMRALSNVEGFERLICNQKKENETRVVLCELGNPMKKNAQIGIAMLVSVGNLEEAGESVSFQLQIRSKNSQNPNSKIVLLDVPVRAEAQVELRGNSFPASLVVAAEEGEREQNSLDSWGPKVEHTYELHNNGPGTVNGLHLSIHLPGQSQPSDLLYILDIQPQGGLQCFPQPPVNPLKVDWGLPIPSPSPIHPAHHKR
T1 sequence (P08514 891-1039 partner limits assumed): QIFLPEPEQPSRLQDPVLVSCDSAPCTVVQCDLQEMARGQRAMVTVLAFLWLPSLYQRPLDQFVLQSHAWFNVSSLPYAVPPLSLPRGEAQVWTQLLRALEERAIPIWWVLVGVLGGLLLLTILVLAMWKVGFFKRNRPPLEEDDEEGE
T1 sequence (P05106 27-788): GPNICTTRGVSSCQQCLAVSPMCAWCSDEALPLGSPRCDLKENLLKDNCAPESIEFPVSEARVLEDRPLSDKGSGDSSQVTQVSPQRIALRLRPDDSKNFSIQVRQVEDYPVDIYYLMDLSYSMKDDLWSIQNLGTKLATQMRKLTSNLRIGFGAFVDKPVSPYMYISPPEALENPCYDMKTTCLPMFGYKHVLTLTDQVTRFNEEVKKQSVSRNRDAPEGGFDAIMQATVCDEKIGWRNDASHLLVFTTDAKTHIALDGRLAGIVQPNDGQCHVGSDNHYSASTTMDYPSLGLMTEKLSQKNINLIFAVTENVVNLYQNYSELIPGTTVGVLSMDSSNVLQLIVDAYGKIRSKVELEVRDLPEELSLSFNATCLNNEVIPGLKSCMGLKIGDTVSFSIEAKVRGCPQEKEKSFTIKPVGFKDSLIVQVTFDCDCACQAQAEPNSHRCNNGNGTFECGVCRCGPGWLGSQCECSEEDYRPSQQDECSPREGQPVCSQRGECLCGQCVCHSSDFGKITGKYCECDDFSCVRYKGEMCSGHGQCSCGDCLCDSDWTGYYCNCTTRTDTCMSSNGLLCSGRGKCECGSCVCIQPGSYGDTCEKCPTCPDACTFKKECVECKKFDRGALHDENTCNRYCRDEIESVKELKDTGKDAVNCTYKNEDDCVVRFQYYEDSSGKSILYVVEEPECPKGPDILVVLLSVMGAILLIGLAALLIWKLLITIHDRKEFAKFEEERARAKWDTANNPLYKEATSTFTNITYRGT
Method: Affinity assay: In the first step human GPIIb/IIIa purified from human platelets was immobilized on a 96-well solid plate. After 48 hours the plates were washed and the unspecific binding sites were blocked with Roti®-Block. 2. In the next step, the plates were simultaneously incubated with a tritium labeled known GPIIb/IIIa binder (^3H) mixed with increasing concentrations of the novel compounds (inhibitor). The higher the affinity of the inhibitor, the lower the bound fraction of the tritiated known GPIIb/IIIa binder (^3H) was. The fraction of tritiated compound (^3H), which is not displaced by inhibitor, was measured in a microplate scintillation counter.
Purified human glycoprotein IIb/IIIa (20 mM Tris-HCl, 0.1 M NaCl, 0.1% Triton X-100, 1 mM CaCl2, 0.05% NaN3, 50% Glycerol, pH 7.4) was purchased from Enzyme Research Laboratories Inc. (South Bend, Ind.). The GPIIb/IIIa receptor was diluted in phosphate-buffered saline (Dulbecco's Phosphate Buffered Saline (D-PBS (+)) with calcium and magnesium, GIBCO®, Invitrogen) with 0.01% bovine serum albumin (albumin from bovine serum—lyophilized powder, 96%, Sigma).
The GPIIb/IIIa receptor was immobilized 48 hours at least (100 μL per well, 48 to maximum 96 hours) on a 96-well solid plate (Immuno Plate MaxiSorp™, Nunc, Roskilde, Denmark) at 277 K to 280 K and at a concentration of 0.1 μg per well to 1 μg per well. As negative control one row of the plate (n=8) was incubated just with 2% bovine serum albumin (200 μL per well, albumin from bovine serum—lyophilized powder, ≧96%, Sigma, diluted in D-PBS (+)).
After washing three times with the wash buffer (230 μL per well, Dulbecco's Phosphate Buffered Saline (D-PBS (−)) contains no calcium or magnesium, GIBCO®, Invitrogen) residual exposed plastic and unspecific binding sites were blocked by incubating the plate with a special blocking solution (200 μL per well, Roti®-Block, Car Roth GmbH Co KG, Karlsruhe) containing 2% bovine serum albumin (Albumin from bovine serum—lyophilized powder, ≧96%, Sigma) 1 hour at room temperature.
After washing three times with the wash buffer 50 μL of tritiated reference compound (60 nM, ^3H-labeled compound) and 50 μL of novel compound (inhibitor) were simultaneously added to each well and incubated for 1 hour at room temperature. Several concentrations of each novel inhibitor (0.1, 1, 2, 5, 10, 20 50, 100, 200, 500, 1000, 2000, 5000, 10000 and 20000 nM) were investigated. At each concentration of inhibitor a fourfold determination was performed.
The maximum value of tritiated reference compound was determined without addition of inhibitor (n=8). To exclude unspecific binding of ^3H— reference compound wells without glycoprotein receptors were used as negative controls (n=12, identically treated just without GPIIb/IIIa receptors).
After one hour the plate was washed three times with phosphate-buffered saline (200 μL per well, Dulbecco's Phosphate Buffered Saline (D-PBS (+)), GIBCO®, Invitrogen). Following 140 μL of liquid scintillation cocktail (MicroScint™ 40 aqueous, Perkin Elmer) was added to each well. After 15 min at room temperature the plates were measured at the microplate scintillation counter (TopCount NXT v2.13, Perkin Elmer, Packard Instrument Company).
In the first step human glycoprotein IIb/IIIa, which is purified from human platelets, was immobilized on a 96-well solid plate. After 48 hours at least the plates were washed and the unspecific binding sites were blocked with Roti®-Block. In the next step, the plates were simultaneously incubated with a tritium labeled reference compound and the novel small molecule compound (inhibitor). The higher the affinity of the inhibitor, the smaller is the bound fraction of reference compound. The fraction of tritiated reference compound, which is not displaced by inhibitor, was measured at a microplate scintillation counter. The higher the affinity of the inhibitor, the smaller is the bound fraction of tritium-labeled reference compound. […]

[2] = system: human activated platelets; test: Binding of investigated compounds to human activated platelets (ICP-MS of Gd in pellet and supernatant); type: cell-based; settings: ADP-activated platelet-rich plasma, 20 minutes
Method: For each experiment fresh blood was taken from a volunteer using 10 mL citrate-tubes (Sarstedt S-Monovette 02.1067.001, 10 mL, Citrate 3.13%). The 10 mL citrate-tubes were carefully inverted 10 times to mix blood and anticoagulant. The tubes were stored in an incubator at a temperature of 37° C. until centrifugation (Heraeus miniTherm CTT with integrated rotation- and turning device, turning speed: 19 rotations per minute, Heraeus Instruments GmbH, Hanau/Germany).
For plasma preparation tube centrifugation was carried out for 15 minutes at 1811 g at room temperature (Eppendorf, Centrifuge 5810R). Blood was centrifuged 15 minutes at 201 g at room temperature to produce platelet-rich plasma. The tubes were stored for 30 min at room temperature to get a better separation. The separated platelet-rich plasma was finally centrifuged for further 3 min at 453 g to remove the remaining erythrocytes. The platelet-rich plasma was activated using a final concentration of 5 μM Adenosindiphosphate (ADP, Sigma). The activated platelet-rich plasma was incubated 20 minutes with different concentrations of gadolinium-labeled compound and subsequently was centrifuged 3 minutes at 1360 g. 20 μL of incubation solution was taken to determine the concentration (n=3). […] The gadolinium concentration of supernatant and pellet was determined using an inductively coupled plasma mass spectrometry (ICP-MS Agilent 7500a).
The results for incubation concentration of 1 μM gadolinium-labeled compound are summarized in table 3 (in comparison to Gadovist® standard dose: 100 μmol Gd/kg body weight).

[3] = incubation concentration 1 μM molecule, pellet was not washed
[4] = incubation concentration 1 μM molecule, pellet washed

| Structure (SMILES) | IC50 [1] [nM] | Concentration within platelet pellet [2, 3] [μM Gd] | Concentration within platelet pellet [2, 4] [μM Gd] | Concentration within platelet pellet ([2]; incubation concentration 0.8 μM molecule, pellet washed) [μM Gd] |
| --- | --- | --- | --- | --- |
| C[C@@H](C(=O)NCC(=O)OCCC#Cc1cncc([C@H](CC(=O)O)NC(=O)[C@@H]2CCCN(C(=O)CCC3CCNCC3)C2)c1)N1CCN(CC(=O)O)CCN(CC(=O)O)CCN(CC(=O)O)CC1 [Example 1, Gadolinium 2,2′,2″-(10-{(2S)-1-[(2-{[4-(5-{(1S)-2-carboxy-1-[({(3R)-1-[3-(piperidin-4-yl)-propanoyl]piperidin-3-yl}carbonyl)amino]ethyl}pyridin-3-yl)but-3-yn-1-yl]oxy}-2-oxo-ethyl)amino]-1-oxopropan-2-yl}-1,4,7,10-tetraazacyclododecane-1,4,7-triyl)triacetate] | 29 |  |  |  |
| C[C@@H](C(=O)NCC(=O)NCCC#Cc1cncc([C@H](CC(=O)O)NC(=O)[C@@H]2CCCN(C(=O)CCC3CCNCC3)C2)c1)N1CCN(CC(=O)O)CCN(CC(=O)O)CCN(CC(=O)O)CC1 [Example 2, Gadolinium 2,2′,2″-(10-{(2S)-1-[(2-{[4-(5-{(1S)-2-carboxy-1-[({(3R)-1-[3-(piperidin-4-yl)-propanoyl]piperidin-3-yl}carbonyl)amino]ethyl}pyridin-3-yl)but-3-yn-1-yl]amino}-2-oxo-ethyl)amino]-1-oxopropan-2-yl}-1,4,7,10-tetraazacyclododecane-1,4,7-triyl)triacetate] | 24 | 8.1 ± 0.6 |  |  |
| C[C@@H](C(=O)NCC(=O)NCCCCCCc1ccc(C#Cc2cncc([C@H](CC(=O)O)NC(=O)[C@@H]3CCCN(C(=O)CCC4CCNCC4)C3)c2)cc1)N1CCN(CC(=O)O)CCN(CC(=O)O)CCN(CC(=O)O)CC1 [Example 3, Gadolinium 2,2′,2″-{10-[(2S)-1-({2-[(6-{4-[(5-{(1S)-2-carboxy-1-[({(3R)-1-[3-(piperidin-4-yl)propanoyl]piperidin-3-yl}carbonyl)amino]ethyl}pyridin-3-yl)ethynyl]phenyl}hexyl)-amino]-2-oxoethyl}amino)-1-oxopropan-2-yl]-1,4,7,10-tetraazacyclododecane-1,4,7-triyl}triacetate] | 13 | 8.3 ± 2.1 |  |  |
| C[C@@H](C(=O)NCC(=O)NCCCCCCc1ccc(CCc2cncc([C@H](CC(=O)O)NC(=O)[C@@H]3CCCN(C(=O)CCC4CCNCC4)C3)c2)cc1)N1CCN(CC(=O)O)CCN(CC(=O)O)CCN(CC(=O)O)CC1 [Example 4, Gadolinium 2,2′,2″-{10-[(2S)-1-({2-[(6-{4-[(5-{(1S)-2-carboxy-1-[({(3R)-1-[3-(piperidin-4-yl)propanoyl]piperidin-3-yl}carbonyl)amino]ethyl}pyridin-3-yl)ethyl]phenyl}hexyl)-amino]-2-oxoethyl}amino)-1-oxopropan-2-yl]-1,4,7,10-tetraazacyclododecane-1,4,7-triyl}triacetate] | 25 |  | 3.8 ± 0.2 |  |
| CC(C(=O)NCC(=O)NCC(NC(=O)CNC(=O)C(C)N1CCN(CC(=O)O)CCN(CC(=O)O)CCN(CC(=O)O)CC1)C(=O)NCC(NC(=O)C(CNC(=O)CNC(=O)C(C)N1CCN(CC(=O)O)CCN(CC(=O)O)CCN(CC(=O)O)CC1)NC(=O)CNC(=O)C(C)N1CCN(CC(=O)O)CCN(CC(=O)O)CCN(CC(=O)O)CC1)C(=O)NCCCCc1cccc(CCc2cncc([C@H](CC(=O)O)NC(=O)[C@@H]3CCCN(C(=O)CCC4CCNCC4)C3)c2)c1)N1CCN(CC(=O)O)CCN(CC(=O)O)CCN(CC(=O)O)CC1 (stereo partly drawn) [Example 9, Tetragadolinium 2,3-bis({2,3-bis[(N-{2-[4,7,10-tris(carboxylatomethyl)-1,4,7,10-tetraazacyclododecan-1-yl]propanoyl}glycyl)amino]propanoyl}amino)-N-(4-{3-[(5-{(1S)-2-carboxy-1-[({(3R)-1-[3-(piperidin-4-yl)propanoyl]piperidin-3-yl}carbonyl)amino]ethyl}pyridin-3-yl)ethyl]phenyl}butyl)propanamide] | 32 |  |  | 21.1 ± 9.6 |
| CC(C(=O)NCC(=O)NC[C@H](NC(=O)CNC(=O)C(C)N1CCN(CC(=O)O)CCN(CC(=O)O)CCN(CC(=O)O)CC1)C(=O)NCCCc1ccc(C#Cc2cncc([C@H](CC(=O)O)NC(=O)[C@@H]3CCCN(C(=O)CCC4CCNCC4)C3)c2)cc1)N1CCN(CC(=O)O)CCN(CC(=O)O)CCN(CC(=O)O)CC1 (stereo partly drawn) [Example 10, Digadolinium N-{2-[4,7,10-tris(carboxylatomethyl)-1,4,7,10-tetraazacyclododecan-1-yl]-propanoyl}glycyl-N-(3-{4-[(5-{(1S)-2-carboxy-1-[({(3R)-1-[3-(piperidin-4-yl)propanoyl]-piperidin-3-yl}carbonyl)amino]ethyl}pyridin-3-yl)ethynyl]phenyl}propyl)-3-[(N-{2-[4,7,10-tris(carboxylatomethyl)-1,4,7,10-tetraazacyclododecan-1-yl]propanoyl}glycyl)-amino]alaninamide] | 16 |  | 13.9 ± 0.3 |  |
| CC(C(=O)NCC(=O)NCC(NC(=O)CNC(=O)C(C)N1CCN(CC(=O)O)CCN(CC(=O)O)CCN(CC(=O)O)CC1)C(=O)NCC(NC(=O)C(CNC(=O)CNC(=O)C(C)N1CCN(CC(=O)O)CCN(CC(=O)O)CCN(CC(=O)O)CC1)NC(=O)CNC(=O)C(C)N1CCN(CC(=O)O)CCN(CC(=O)O)CCN(CC(=O)O)CC1)C(=O)NCCCc1ccc(C#Cc2cncc([C@H](CC(=O)O)NC(=O)[C@@H]3CCCN(C(=O)CCC4CCNCC4)C3)c2)cc1)N1CCN(CC(=O)O)CCN(CC(=O)O)CCN(CC(=O)O)CC1 (stereo partly drawn) [Example 11, Tetragadolinium 2,3-bis({2,3-bis[(N-{2-[4,7,10-tris(carboxylatomethyl)-1,4,7,10-tetraaza-cyclododecan-1-yl]propanoyl}glycyl)amino]propanoyl}amino)-N-(3-{4-[(5-{(1S)-2-carboxy-1-[({(3R)-1-[3-(piperidin-4-yl)propanoyl]piperidin-3-yl}carbonyl)amino]ethyl}-pyridin-3-yl)ethynyl]phenyl}propyl)propanamide] | 26 |  | 19.9 ± 0.9 |  |
